{"source": "patent US9655975B2", "about": "“Prodrug using nitroimidazole” (UNIVERSITY OF TSUKUBA, priority 2012, dated 2017)", "type_in_all_cases": "cell-based", "key": {"cultured cells": {"test_system": "cultured cells", "test": "Incubation of Compound 5 in cultured cells under low oxygen (Example 4), release of naphthylmethylamine by HPLC", "conditions": "Compound 5 at 1 mM, 6 hours, 20% O2 vs 1% O2, HPLC, FIG. 2", "experimental": "This example was carried out to confirm that Compound 5 is reduced in cells within a hypoxic environment, and that naphthylmethylamine is released by a subsequent intramolecular cyclization reaction.\nA cell suspension prepared to a cell count of 1×10^4 cells/mL was dispensed into a 96-well plate, and the cells were cultured by 24 hours of incubation at 37° C. After 24 hours, the synthesized Compound 5 was added to the cells in an amount of 1 mM. Following addition, the cells were cultured for 6 hours each in a normal oxygen concentration incubator (20% O2) or at a low-oxygen work station (1% O2). The culture medium was then recovered, 50 μL of Trypsin/EDTA was added and 5 minutes of incubation was carried out, following which the cells were stripped away and added to the medium that was earlier recovered. Next, the recovered sample was freeze-dried overnight, 200 μL of acetonitrile was added, and 30 minutes of ultrasonic cleaning was carried out. In addition, dead cells were precipitated by centrifugal separation (3,000 rpm, 10 min), the supernatant was recovered, and the acetonitrile was removed with a centrifugal evaporator. Next, 200 μL of methanol (for LC/MS) was added to the Eppendorf tube used in centrifugation, the tube contents were passed through a filter (0.2 μm), and LC/MS measurement and high-performance liquid chromatography (HPLC) measurement were carried out. […]"}, "[1]": {"test_system": "Human pancreatic cancer cells (MIA PaCa-2)", "test": "Incubation of Compound 5 in MIA PaCa-2 cells under low oxygen (Example 5), release by LC/MS", "conditions": "Compound 5 at 10 μM, MIA PaCa-2, 20% O2 vs 0.1% O2, LC/MS, FIG. 3", "experimental": "Human pancreatic cancer cells (MIA PaCa-2, acquired from Riken Cell Bank) were prepared as a suspension having a cell count of 1×10^4 cells/mL), and dispensed into a 96-well plate. After 24 hours, Compound 5 was added to a concentration of 10 μM and the cells were cultured, in a normal oxygen concentration incubator (20% O2) or at a low-oxygen work station (0.1% O2). After a given time had elapsed, the culture medium was recovered, trypsin was added and the cells were recovered. The recovered cells were disrupted by sonic treatment, the compound was extracted with acetonitrile, and analysis by LC/MS was carried out under the following conditions.\nColumn used: Lachrom Ultra C18 (particle size, 2 μm; 2 mm×50 mm) column\nMeasurement wavelength: 220 nm\nEluent A: 0.1% TFA-containing milliQ\nGradient: 95:5 (Eluent A:Eluent B)→95:5 (5 minutes)→30:70 (15 minutes)\nBy carrying out this measurement, the amount of compound released in a low-oxygen environment and the amount of compound released in a normal oxygen environment were compared."}, "[2]": {"test_system": "Human pancreatic cancer cells (MIA PaCa-2)", "test": "Evaluation of cell survival rate by WST assay, normal vs low oxygen (Example 7, Comparative Example)", "experimental": "Human pancreatic cancer cells (MIA PaCa-2, acquired from Riken Cell Bank) were dispensed at a density of 5,000 cells/well and cultured for 24 hours in Dulbecco's modified Eagle medium (DMEM), following which Compound 7 was added to the specified concentration and 6 hours of culturing was carried out at a normal oxygen concentration (20%) or a low oxygen concentration (0.1%). After culturing, DMEM medium replacement was carried out, the compound was removed, and 48 hours of culturing was carried out in a normal oxygen concentration incubator, following which the cell survival rate was analyzed by a WST assay.\nCompound 8 below, which is mentioned in WO 2009/018163 A1, was furnished for use. The cell survival rates were compared in tests conducted by the method described in Example 7 on both Compound 8 and a compound within the scope of this invention (aside from the fact that the corresponding linker was —CH2CH2C(═O)—, the manner of bonding between nitroimidazole and the drug was the same; Compound 7 of Example 6)."}, "[3]": {"test_system": "Human pancreatic cancer cells (MIA PaCa-2)", "test": "Release of drug from prednisolone prodrug in low-oxygen environment (Example 16), LC/MS", "conditions": "Compound 13 at a concentration of 10, one hour, 20% O2 vs 0.1% O2, LC/MS, FIG. 8", "experimental": "Human pancreatic cancer cells (MIA PaCa-2, acquired from Riken Cell Bank) were prepared as a suspension having a cell count of 1×10^4 cells/mL), and dispensed into a 96-well plate. After 24 hours, Compound 13 was added to a concentration of 10 and the cells were cultured in a normal oxygen concentration incubator (20% O2) or at a low-oxygen work station (0.1% O2). One hour layer, the culture medium was recovered, trypsin was added, and the cells were recovered. The recovered cells were disrupted by sonic treatment and the compound was extracted with acetonitrile, following which analysis by LC/MS of the amount of prednisolone released was carried out under the following conditions.\nColumn used: TSKgel ODS-100Z (particle size, 3 μm; 2 mm×75 mm) column\nMeasurement wavelength: 250 nm\nEluent A: 0.1 M ammonium acetate\nGradient: 40:60 (Eluent A:Eluent B)→10:90 (20 minutes)\nBy carrying out this measurement, the amount of compound released in a low-oxygen environment was compared with the amount released in a normal oxygen environment."}}, "data": [{"compound": "O=C(CCn1ccnc1[N+](=O)[O-])NCc1cccc2ccccc12", "note": "[Compound 5, N-Naphthylmethyl-3-(2-Nitro-1H-Imidazolyl)propionylamide]", "values": [{"measurement": "amount of naphthylmethylamine released in low-oxygen vs normal oxygen environment", "setting": "cultured cells", "value": "much naphthylmethylamine is released in a low-oxygen environment"}, {"measurement": "amount of naphthylmethylamine released in low-oxygen vs normal oxygen environment", "setting": "[1]", "value": "much naphthylmethylamine is released in a low-oxygen environment"}]}, {"compound": "COc1cccc2c1C(=O)c1c(O)c3c(c(O)c1C2=O)CC(O)(C(=O)CO)CC3OC1CC(NC(=O)CCn2ccnc2[N+](=O)[O-])C(O)C(C)O1", "note": "(centres unmarked) [Compound 7]", "values": [{"measurement": "cell survival rate at low oxygen concentration compared with normal oxygen concentration", "setting": "[2]; 6 hours at 20% or 0.1% O2, then 48 hours normal oxygen, WST assay, FIG. 4", "value": "significantly lowers the survival rate of human pancreatic cancer cells at a low-oxygen concentration compared with a normal oxygen concentration"}, {"measurement": "cytotoxicity compared with known Compound 8", "setting": "[2]; method of Example 7, MIA PaCa-2, FIG. 5", "value": "significantly higher cytotoxicity"}]}, {"compound": "C[C@]12C=CC(=O)C=C1CC[C@@H]1[C@@H]2[C@@H](O)C[C@@]2(C)[C@H]1CC[C@]2(O)C(=O)COC(=O)CCn1ccnc1[N+](=O)[O-]", "note": "[Compound 13]", "values": [{"measurement": "amount of prednisolone released in low-oxygen vs normal oxygen environment", "setting": "[3]", "value": "much prednisolone is released in a low-oxygen environment"}]}]}
